Results reported in ChEMBL document CHEMBL3046159, “Synthesis of some 3,4-disubstituted-6,7-dihydro-imidazo[2,1-b][1,3]thiazole and 3,4-disubstituted-7,8-dihydro-6H-imidazo[2,1-b][1,3]thiazine derivatives and evaluation of their cytotoxicities against F2408 and 5RP7 cells” (Med Chem Res, 2008).
Values after ≈ are worked out from the molar mass of the structure shown. Active and inactive are the calls of the source. No cut-off for these calls is given here.

Assays:
[1] = Cytotoxicity against Rattus norvegicus (rat) F2408 cells after 24 hr by MTT assay; assay type: cell-based; settings: F2408, 24 h
[2] = Cytotoxicity against Rattus norvegicus (rat) F2408 cells assessed as cell viability at 0.0256 to 0.064 ug/ml after 24 hr by MTT assay; assay type: cell-based; settings: read-out: Activity
[3] = Cytotoxicity against Rattus norvegicus (rat) F2408 cells assessed as cell viability at 0.0128 ug/ml after 24 hr by MTT assay; assay type: cell-based; settings: read-out: Activity
[4] = Cytotoxicity against Rattus norvegicus (rat) 5RP7 cells after 24 hr by MTT assay; assay type: functional, cell-based; settings: 5RP7, 24 h
[5] = Cytotoxicity against Rattus norvegicus (rat) 5RP7 cells assessed as cell viability at 0.0128 ug/ml after 24 hr by MTT assay; assay type: functional; settings: 5RP7, 24 h, read-out: Activity
5RP7 [6] = test: Cytotoxicity against Rattus norvegicus (rat) 5RP7 cells at low concentration after 24 by MTT assay; assay type: functional, cell-based
[7] = Cytotoxicity against Rattus norvegicus (rat) F2408 cells at low concentration after 24 hr by MTT assay; assay type: cell-based; settings: f2408, 24 h
[8] = Cytotoxicity against Rattus norvegicus (rat) F2408 cells after 48 hr by MTT assay; assay type: cell-based; settings: f2408, 48 h
5RP7 [9] = test: Cytotoxicity against Rattus norvegicus (rat) 5RP7 cells at high concentration after 48 hr by MTT assay; assay type: functional, cell-based
[10] = Cytotoxicity against Rattus norvegicus (rat) 5RP7 cells at 0.0128 ug/ml by MTT assay; assay type: functional
[11] = Cytotoxicity against Rattus norvegicus (rat) 5RP7 cells at 0.064 ug/ml by MTT assay; assay type: functional
[12] = Cytotoxicity against Rattus norvegicus (rat) F2408 cells at 0.0256 ug/ml by MTT assay; assay type: cell-based
[13] = Cytotoxicity against Rattus norvegicus (rat) F2408 cells at 0.0128 ug/ml by MTT assay; assay type: cell-based
[14] = Cytotoxicity against Rattus norvegicus (rat) F2408 cells at 0.064 ug/ml by MTT assay; assay type: cell-based
[15] = Cytotoxicity against Rattus norvegicus (rat) 5RP7 cells at 0.0256 ug/ml by MTT assay; assay type: functional

| Compound | IC50 [1] | IC50 [4] | Activity (5RP7 [6]) | Activity [7] | further results |
| --- | --- | --- | --- | --- | --- |
| Cc1ccc(-c2nc3n(c2-c2ccc(C)cc2)CCCS3)cc1 | 12 µg/mL (≈ 37.4 µM) | 4.6 µg/mL (≈ 14.4 µM) |  |  | viability at 24 h [2]: 100%; viability at 24 h, 0.0128 ug/ml [3]: 100%; viability at 0.0128 µg/mL [5]: 87% |
| Cc1ccc(-c2nc3n(c2-c2ccc(C)cc2)CCS3)cc1 | 15 µg/mL (≈ 49 µM) | 18 µg/mL (≈ 58.7 µM) | Active | Non-toxic |  |
| COc1ccc(-c2nc3n(c2-c2ccc(OC)cc2)CCS3)cc1 | 29 µg/mL (≈ 85.7 µM) | 22 µg/mL (≈ 65 µM) | Active | Non-toxic |  |
| c1ccc(-c2nc3n(c2-c2ccccc2)CCS3)cc1 | 9.5 µg/mL (≈ 34.1 µM) | 15 µg/mL (≈ 53.9 µM) |  |  | Activity [8]: Toxic; Activity (5RP7 [9]): Active |
| c1ccc(-c2nc3n(c2-c2ccccc2)CCCS3)cc1 | 10 µg/mL (≈ 34.2 µM) | 2.9 µg/mL (≈ 9.92 µM) |  |  | Activity [10]: 30%; Activity [11]: 21%; Activity [12]: 21%; Activity [13]: 20%; Activity [14]: 18%; Activity [15]: 28% |
